The source of these data is ChEMBL document CHEMBL3797132, “State of affairs: Design and structure-activity relationships of reversible P2Y12 receptor antagonists” (Bioorg Med Chem Lett, 2016).

In data set [1] the target is T1, P2Y purinoceptor 12 (Homo sapiens, UniProt Q9H244). The data set can be described thus: Displacement of [3H]-2-Mes-ADP from human P2Y12 receptor. (In general: Loss of bound radioactivity is the signal in a displacement assay; it reports binding, not function.)
Data set [2] can be described thus: Terminal half life in beagle dog at 10 mg/kg, po administered via oral gavage by LC/MS analysis. Type of data set: ADME, organism-based, Canis lupus familiaris. The settings on record: in vivo, read-out: beta t1/2 (converted).
The nature of data set [3]: Clearance in rat. Format: ADME, organism-based. The note with it: in vivo.
Data set [4] concerns the target T1, P2Y purinoceptor 12. Nature of the data set: Antagonist activity at P2Y12 receptor (unknown origin) by GTPgammaS binding assay. Type of data set: functional. In general terms: GTPγS is a poorly hydrolysed GTP analogue; its binding reports G protein activation.
For data set [5], the target named is T1, P2Y purinoceptor 12. Nature of the data set: Binding affinity to P2Y12 receptor (unknown origin).
The target in data set [6] is T1, P2Y purinoceptor 12. The data set can be described thus: Antagonist activity at P2Y12 receptor (unknown origin).
The nature of data set [7]: Cmax in beagle dog at 10 mg/kg, po administered via oral gavage by LC/MS analysis. Format: ADME, organism-based, Canis lupus familiaris. The settings on record: in vivo.
In data set [8] the target is T1, P2Y purinoceptor 12. Nature of the data set: Displacement of [3H]-2-Mes-ADP from human P2Y12 receptor in platelets by scintillation counter.
Data set [9] in a line: Oral bioavailability in rat. Format: ADME, organism-based. The settings on record: in vivo.

T1 sequence (Q9H244 whole entry): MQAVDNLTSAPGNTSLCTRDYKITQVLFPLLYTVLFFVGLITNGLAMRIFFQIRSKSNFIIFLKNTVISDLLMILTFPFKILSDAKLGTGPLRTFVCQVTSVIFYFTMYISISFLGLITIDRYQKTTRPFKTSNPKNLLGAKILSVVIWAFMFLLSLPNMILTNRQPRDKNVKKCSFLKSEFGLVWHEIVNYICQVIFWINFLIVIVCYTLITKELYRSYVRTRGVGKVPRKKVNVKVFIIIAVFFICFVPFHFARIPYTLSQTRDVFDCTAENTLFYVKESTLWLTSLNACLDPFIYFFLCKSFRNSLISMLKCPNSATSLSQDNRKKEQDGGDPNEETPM

By IC50 is commonly meant the concentration at which inhibition is half-maximal. High values mean a need for much substance, low ones inhibition by little substance. In turn, `CCOC(=O)N1CCN(C(=O)[C@H](CCC(=O)O)NC(=O)c2cc(OC(C)(C)C(=O)O)c3ccc(C)cc3n2)CC1` showed an IC50 on P2Y purinoceptor 12 [1] of 5.3 nM. Moreover, the half-life in data set [2] is 7 h.
What is called clearance is the rate of elimination divided by the concentration. A lower clearance goes with a low capacity for elimination. In the case of `CCc1cnc(-c2cc(C#N)c(N3CC(C(=O)NS(=O)(=O)c4ccc(Cl)s4)C3)nc2C)o1`, the clearance in data set [3] was found to be 16 mL/min/kg. For the same molecule, the half-inhibitory concentration (IC50) on P2Y purinoceptor 12 [4] turned out to be 22 nM; at P2Y purinoceptor 12 [5], 440 nM.
`CCCSc1nc(N[C@@H]2C[C@H]2c2ccc(F)c(F)c2)c2nnn([C@@H]3C[C@H](OCCO)[C@@H](O)[C@H]3O)c2n1` [TICAGRELOR] gave a 50% inhibitory concentration (IC50) at P2Y purinoceptor 12 [6] of 5.01 nM.
As usually defined, the Cmax is the maximum level reached in the sampled fluid or tissue. `CCOC(=O)N1CCN(C(=O)[C@H](CCC(=O)O)NC(=O)c2cc(OC(C)(C)C(=O)OCC)c3ccc(C)cc3n2)CC1` yielded an IC50 at P2Y purinoceptor 12 [1] of 29 nM. The peak level in data set [7] (Cmax) was 14 µM. In addition, in [2], the half-life was 0.2 h.
On P2Y purinoceptor 12 [8], `CNc1cc2[nH]c(=O)n(-c3ccc(NC(=O)NS(=O)(=O)c4ccc(Cl)s4)cc3)c(=O)c2cc1F` [ELINOGREL] gave an IC50 of less than 10 nM.
For orientation: bioavailability means the share of a dose that reaches the circulation, judged against a reference dose that is usually intravenous. Low readings indicate little systemic uptake, high ones much systemic uptake. `CCOC(=O)c1cc(C#N)c(N2CCN(C(=O)NS(=O)(=O)c3ccc(Cl)s3)CC2)nc1C` yielded a clearance in data set [3] of 16 mL/min/kg. Moreover, the IC50 on P2Y purinoceptor 12 [4] came out at 70 nM; at P2Y purinoceptor 12 [5], 40 nM. In addition, the bioavailability in data set [9] came to 15%.
`CCOC(=O)c1cc(C#N)c(N2CC(C(=O)NS(=O)(=O)c3ccc(Cl)s3)C2)nc1C` registered a clearance in [3] of 3 mL/min/kg. In addition, the IC50 on P2Y purinoceptor 12 [5] is 60 nM.
